Measured values as given in patent US12643895B2, “Heteroaryl-substituted pyrazolo-pyridine protein kinase inhibitors for promoting liver regeneration or reducing or preventing hepatocyte death” (HepaRegeniX GmbH, priority 2019, dated 2026).

Assays:
Assay type in all cases: biochemical
[1] = target: T1, MKK4 (Homo sapiens, UniProt P45985); assay: 33PanQinase radiometric kinase assay, MKK4; conditions: category based on IC50-values; ATP at apparent Km; read-out: Potency MKK4
T1 construct: purchased ProQinase GmbH, Freiburg, Germany (assay service)
T1 sequence (P45985 1-399): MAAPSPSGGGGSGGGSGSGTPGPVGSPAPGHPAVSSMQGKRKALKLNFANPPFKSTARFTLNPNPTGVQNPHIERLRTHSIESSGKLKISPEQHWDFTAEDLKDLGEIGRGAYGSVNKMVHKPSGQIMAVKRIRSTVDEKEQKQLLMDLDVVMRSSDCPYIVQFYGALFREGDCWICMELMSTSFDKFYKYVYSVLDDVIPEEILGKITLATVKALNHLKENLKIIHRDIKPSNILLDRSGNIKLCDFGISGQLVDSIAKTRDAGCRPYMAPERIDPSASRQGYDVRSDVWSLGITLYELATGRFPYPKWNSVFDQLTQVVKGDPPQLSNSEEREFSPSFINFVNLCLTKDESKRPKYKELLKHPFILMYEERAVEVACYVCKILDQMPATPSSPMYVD
Protocol: (§1) The kinase activities of the compounds of the invention were measured using the 33PanQinase® Assay Service provided by ProQinase GmbH, Freiburg, Germany. Details of the assay conditions are disclosed on the website of ProQinase (https://www.proqinase.com/products-services-biochemical-assay-services/kinase-assays). In brief, all kinase assays were performed in 96-well FlashPlates™ from PerkinElmer (Boston, MA, USA) in a 50 μl reaction volume. The reaction cocktail was pipetted in four steps in the following order: • 20 μl of assay buffer (standard buffer) • 5 μl of ATP solution (in H2O) • 5 μl of test compound (in 10% DMSO) • 20 μl enzyme/substrate mix
(§2) The reaction cocktails were incubated at 30° C. for 60 minutes. The reaction is stopped with 50 μl of 2% (v/v) H3PO4, plates were aspirated and washed two times with 200 μl 0.9% (w/v) NaCl. Incorporation of ^33Pi was determined with a microplate scintillation counter (Microbeta, Wallac).
(§3) All assays were performed with a BeckmanCoulter/SAGIAN™ Core System.
(§4) In case of single concentration assays, the potency of the test compound is expressed as % residual activity. […] The fitting method used was a least-squares fit.

[2] = target: T2, MKK7 (Homo sapiens, UniProt O14733); assay: 33PanQinase radiometric kinase assay, MKK7 (off-target); conditions: ratio IC50(off-target)/IC50(MKK4)
T2 construct: purchased ProQinase GmbH, Freiburg, Germany (assay service)
T2 sequence (O14733 1-419): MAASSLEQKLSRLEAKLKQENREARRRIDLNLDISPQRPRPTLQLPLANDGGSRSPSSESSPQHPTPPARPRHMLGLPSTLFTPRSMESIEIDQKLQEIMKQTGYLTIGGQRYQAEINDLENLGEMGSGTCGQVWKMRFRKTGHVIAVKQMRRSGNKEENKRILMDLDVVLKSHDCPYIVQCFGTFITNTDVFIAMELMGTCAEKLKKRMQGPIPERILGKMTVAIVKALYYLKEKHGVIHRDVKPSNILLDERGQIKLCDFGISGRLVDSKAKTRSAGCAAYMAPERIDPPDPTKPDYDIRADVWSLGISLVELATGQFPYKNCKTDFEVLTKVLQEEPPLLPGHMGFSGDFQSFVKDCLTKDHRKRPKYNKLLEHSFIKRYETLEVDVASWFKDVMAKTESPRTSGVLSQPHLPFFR
Protocol: as §1, §2, §3, §4
(§5) Selectivity of test compounds against BRaf, JNK1 and MKK7, altogether denominated as off-targets was calculated by the ratio of IC50 (off-target)/IC50 (MKK4) and categorized as follows: […]

[3] = target: T3, JNK1 (Homo sapiens, UniProt P45983); assay: 33PanQinase radiometric kinase assay, JNK1 (off-target); conditions: ratio IC50(off-target)/IC50(MKK4)
T3 construct: purchased ProQinase GmbH, Freiburg, Germany (assay service)
T3 sequence (P45983 whole entry): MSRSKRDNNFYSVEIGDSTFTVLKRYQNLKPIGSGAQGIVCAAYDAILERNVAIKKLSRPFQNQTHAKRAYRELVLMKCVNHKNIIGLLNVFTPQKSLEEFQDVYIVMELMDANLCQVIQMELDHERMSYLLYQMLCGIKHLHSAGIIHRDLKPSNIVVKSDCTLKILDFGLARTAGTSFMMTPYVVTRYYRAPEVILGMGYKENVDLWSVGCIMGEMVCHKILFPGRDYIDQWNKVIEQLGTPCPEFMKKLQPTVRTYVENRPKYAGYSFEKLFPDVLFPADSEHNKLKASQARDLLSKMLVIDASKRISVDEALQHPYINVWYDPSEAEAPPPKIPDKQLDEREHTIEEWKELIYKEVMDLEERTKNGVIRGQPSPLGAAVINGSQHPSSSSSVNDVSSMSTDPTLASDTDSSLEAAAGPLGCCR
Protocol: as §1, §2, §3, §4, §5

[4] = target: T4, BRaf (Homo sapiens, UniProt P15056); assay: 33PanQinase radiometric kinase assay, BRaf (off-target); conditions: ratio IC50(off-target)/IC50(MKK4)
T4 construct: purchased ProQinase GmbH, Freiburg, Germany (assay service)
T4 sequence (P15056 whole entry): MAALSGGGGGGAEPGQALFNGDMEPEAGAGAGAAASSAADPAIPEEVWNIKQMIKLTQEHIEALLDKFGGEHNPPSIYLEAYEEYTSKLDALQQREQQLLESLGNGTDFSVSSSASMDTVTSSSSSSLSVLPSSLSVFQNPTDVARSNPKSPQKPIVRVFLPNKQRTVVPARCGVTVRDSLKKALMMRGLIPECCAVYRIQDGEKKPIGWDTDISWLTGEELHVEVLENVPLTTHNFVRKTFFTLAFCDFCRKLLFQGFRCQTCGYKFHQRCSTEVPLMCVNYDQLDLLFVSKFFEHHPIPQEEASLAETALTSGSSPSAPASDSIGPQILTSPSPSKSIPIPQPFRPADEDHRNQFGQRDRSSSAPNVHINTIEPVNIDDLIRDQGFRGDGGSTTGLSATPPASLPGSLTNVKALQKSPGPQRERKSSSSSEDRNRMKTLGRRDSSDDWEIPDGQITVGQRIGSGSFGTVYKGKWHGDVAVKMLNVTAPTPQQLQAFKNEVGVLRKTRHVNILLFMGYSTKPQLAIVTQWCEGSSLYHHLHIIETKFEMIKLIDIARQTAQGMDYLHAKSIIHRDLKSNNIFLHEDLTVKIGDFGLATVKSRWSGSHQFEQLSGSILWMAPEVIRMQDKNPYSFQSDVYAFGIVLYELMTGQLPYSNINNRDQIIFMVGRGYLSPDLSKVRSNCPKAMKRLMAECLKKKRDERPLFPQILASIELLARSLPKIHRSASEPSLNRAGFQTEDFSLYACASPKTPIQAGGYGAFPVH
Protocol: as §1, §2, §3, §4, §5

SMILES | IC50 [1] | Selectivity MKK7 [2] | Selectivity JNK1 [3] | Selectivity Braf [4]
CS(=O)(=O)Nc1c(F)ccc(C(=O)c2n[nH]c3ncc(-c4ccc(Cl)cc4)cc23)c1F [Example 2, N-(3-(5-(4-chlorophenyl)-1H-pyrazolo[3,4-b]pyridine-3-carbonyl)-2,6-difluorophenyl)methanesulfonamide] | < 100 nM | +++ (IC50(off-target)/IC50(MKK4) > 100) | +++ (IC50(off-target)/IC50(MKK4) > 100) | +++ (IC50(off-target)/IC50(MKK4) > 100)
CCCS(=O)(=O)Nc1c(F)ccc(C(=O)c2n[nH]c3ncc(-c4cnc(SC)nc4C)cc23)c1F [Example 33, N-[2,6-difluoro-3-[5-(4-methyl-2-methylsulfanyl-pyrimidin-5-yl)-1H-pyrazolo[3,4-b]pyridine-3-carbonyl]phenyl]propane-1-sulfonamide] | < 100 nM | +++ (IC50(off-target)/IC50(MKK4) > 100) | +++ (IC50(off-target)/IC50(MKK4) > 100) | +++ (IC50(off-target)/IC50(MKK4) > 100)
CCCS(=O)(=O)Nc1c(F)ccc(C(=O)c2n[nH]c3ncc(-c4cnc(C#N)nc4)cc23)c1F [Example 9, N-(3-(5-(2-cyanopyrimidin-5-yl)-1H-pyrazolo[3,4-b]pyridine-3-carbonyl)-2,6-difluorophenyl)propane-1-sulfonamide] | 100 to 1000 nM | ++ (100 ≥ IC50(off-target)/IC50(MKK4) > 10) | ++ (100 ≥ IC50(off-target)/IC50(MKK4) > 10) | ++ (100 ≥ IC50(off-target)/IC50(MKK4) > 10)
COC(=O)c1ccc(-c2cnc3[nH]nc(C(=O)c4ccc(F)c(NS(C)(=O)=O)c4F)c3c2)cn1 [Example 5, Methyl 5-(3-(2,4-difluoro-3-(methylsulfonamido)benzoyl)-1H-pyrazolo[3,4-b]pyridin-5-yl)picolinate] | 1000 to 10000 nM | ++ (100 ≥ IC50(off-target)/IC50(MKK4) > 10) | + (10 ≥ IC50(off-target)/IC50(MKK4) > 3) | +++ (IC50(off-target)/IC50(MKK4) > 100)
O=C(c1c(F)ccc(NS(=O)(=O)Cc2ccccc2)c1F)c1n[nH]c2ncc(-c3cnc(C4CC4)nc3)cc12 [Example 1, N-(3-(5-(2-cyclopropylpyrimidin-5-yl)-1H-pyrazolo[3,4-b]pyridine-3-carbonyl)-2,4-difluorophenyl)-1-phenylmethanesulfonamide] | 100 to 1000 nM | +++ (IC50(off-target)/IC50(MKK4) > 100) | ◯ | + (10 ≥ IC50(off-target)/IC50(MKK4) > 3)
CCCS(=O)(=O)Nc1c(F)ccc(C(=O)c2n[nH]c3ncc(-c4cnc(C5CC5)nc4SC)cc23)c1F [Example 32, N-(3-(5-(2-cyclopropyl-4-(methylthio)pyrimidin-5-yl)-1H-pyrazolo[3,4-b]pyridine-3 carbonyl)-2,6-difluorophenyl)propane-1-sulfonamide] | 100 to 1000 nM | +++ (IC50(off-target)/IC50(MKK4) > 100) | +++ (IC50(off-target)/IC50(MKK4) > 100) | +++ (IC50(off-target)/IC50(MKK4) > 100)
CCCS(=O)(=O)Nc1c(F)ccc(C(=O)c2n[nH]c3ncc(-c4ccc(C(=O)O)nc4)cc23)c1F [Example 28, 5-(3-(2,4-difluoro-3-(propylsulfonamido)benzoyl)-1H-pyrazolo[3,4-b]pyridin-5-yl)picolinic acid] | < 100 nM | ++ (100 ≥ IC50(off-target)/IC50(MKK4) > 10) | +++ (IC50(off-target)/IC50(MKK4) > 100) | +++ (IC50(off-target)/IC50(MKK4) > 100)
CCCS(=O)(=O)Nc1c(F)ccc(C(=O)c2n[nH]c3ncc(-c4cnc(OC)nc4OC)cc23)c1F [Example 34, N-[3-[5-(2,4-dimethoxypyrimidin-5-yl)-1H-pyrazolo[3,4-b]pyridine-3-carbonyl]-2,6-difluoro-phenyl]propane-1-sulfonamide] | < 100 nM | +++ (IC50(off-target)/IC50(MKK4) > 100) | +++ (IC50(off-target)/IC50(MKK4) > 100) | +++ (IC50(off-target)/IC50(MKK4) > 100)
CCCS(=O)(=O)Nc1c(F)ccc(C(=O)c2n[nH]c3ncc(-c4cnc(-c5nnn[nH]5)nc4)cc23)c1F [Example 10, N-(3-(5-(2-(1H-tetrazol-5-yl)pyrimidin-5-yl)-1H-pyrazolo[3,4-b]pyridine-3-carbonyl)-2,6-difluorophenyl)propane-1-sulfonamide] | < 100 nM | ++ (100 ≥ IC50(off-target)/IC50(MKK4) > 10) | +++ (IC50(off-target)/IC50(MKK4) > 100) | +++ (IC50(off-target)/IC50(MKK4) > 100)

Continued, values first:

IC50 [1] | Selectivity MKK7 [2] | Selectivity JNK1 [3] | Selectivity Braf [4] | SMILES
< 100 nM | +++ (IC50(off-target)/IC50(MKK4) > 100) | +++ (IC50(off-target)/IC50(MKK4) > 100) | +++ (IC50(off-target)/IC50(MKK4) > 100) | CCCS(=O)(=O)Nc1c(F)ccc(C(=O)c2n[nH]c3ncc(-c4ccncc4CC)cc23)c1F [Example 36, N-[3-[5-(3-ethyl-4-pyridyl)-1H-pyrazolo[3,4-b]pyridine-3-carbonyl]-2,6-difluoro-phenyl]propane-1-sulfonamide]
< 100 nM | +++ (IC50(off-target)/IC50(MKK4) > 100) | +++ (IC50(off-target)/IC50(MKK4) > 100) | +++ (IC50(off-target)/IC50(MKK4) > 100) | CCCS(=O)(=O)Nc1c(F)ccc(C(=O)c2n[nH]c3ncc(-c4cnc(SC)nc4)cc23)c1F [Example 22, N-(2,6-difluoro-3-(5-(2-(methylthio)pyrimidin-5-yl)-1H-pyrazolo[3,4-b]pyridine-3-carbonyl)phenyl)propane-1-sulfonamide]
100 to 1000 nM | +++ (IC50(off-target)/IC50(MKK4) > 100) | +++ (IC50(off-target)/IC50(MKK4) > 100) | +++ (IC50(off-target)/IC50(MKK4) > 100) | CCCS(=O)(=O)Nc1c(F)ccc(C(=O)c2n[nH]c3ncc(-c4cncnc4)cc23)c1F [Example 6, N-(2,6-difluoro-3-(5-(pyrimidin-5-yl)-1H-pyrazolo[3,4-b]pyridine-3-carbonyl)phenyl)propane-1-sulfonamide]
< 100 nM | +++ (IC50(off-target)/IC50(MKK4) > 100) | +++ (IC50(off-target)/IC50(MKK4) > 100) | +++ (IC50(off-target)/IC50(MKK4) > 100) | CCCS(=O)(=O)Nc1c(F)ccc(C(=O)c2n[nH]c3ncc(-c4cnc(O)nc4)cc23)c1F [Example 16, N-(2,6-difluoro-3-(5-(2-hydroxypyrimidin-5-yl)-1H-pyrazolo[3,4-b]pyridine-3-carbonyl)phenyl)propane-1-sulfonamide]
< 100 nM | +++ (IC50(off-target)/IC50(MKK4) > 100) | +++ (IC50(off-target)/IC50(MKK4) > 100) | +++ (IC50(off-target)/IC50(MKK4) > 100) | CCCS(=O)(=O)Nc1c(F)ccc(C(=O)c2n[nH]c3ncc(-c4ccncc4C#N)cc23)c1F [Example 37, N-[3-[5-(3-cyano-4-pyridyl)-1H-pyrazolo[3,4-b]pyridine-3-carbonyl]-2,6-difluoro-phenyl]propane-1-sulfonamide]
< 100 nM | +++ (IC50(off-target)/IC50(MKK4) > 100) | +++ (IC50(off-target)/IC50(MKK4) > 100) | +++ (IC50(off-target)/IC50(MKK4) > 100) | CCCS(=O)(=O)Nc1c(F)ccc(C(=O)c2n[nH]c3ncc(-c4cccnc4)cc23)c1F [Example 27, N-(2,6-difluoro-3-(5-(pyridin-3-yl)-1H-pyrazolo[3,4-b]pyridine-3-carbonyl)phenyl)propane-1-sulfonamide]
